Our source for the MIC values is patent US20260226038A1, “NEW COMPOUNDS FOR TREATING STAPHYLOCOCCUS INFECTIONS” (AB2 THERAPEUTICS, S. L., priority 2023, published 2026).

Each structure is given as a SMILES string. Converted amounts (≈) assume the structure as drawn.

The assay concerns Staphylococcus aureus. The assay is described as follows: MIC test, microdilution method (CLSI). The assay is classed as cell-based. The settings on record: ATCC strains of Staphylococcus aureus; 18-20 h at 37° C.; growth inhibited ≥80% compared to growth control. As to the method:
Experimental Procedure: MIC Test. Microdilution Method To evaluate the antimicrobial activity of the compounds, ATCC strains of Staphylococcus aureus were used. The minimal inhibitory concentrations (MICs) of the compounds were determined by microdilution assays, according to CLSI methodology. 3 mg of compound were weighted in a 4 mL glass vials and were dissolved in properly volume of DMSO 100% (Reference: […]-50, Sigma) to reach 12.8 mg/mL (Cmax). In 96-well plates U-form (Reference: 650161, Greiner Bio-One): • Dispense 50 μL of the assayed compounds prepared in DMSO 100% at 12.8 mg/mL in each well in column 1. (8 different compounds per plate, row 1 to row 8) • Dispense 25 μL of DMSO 100% in all wells in columns 2 to 12. • With a multichannel pipette, aspire 25 μL of column 1 and dispense in column 2. Mix the contents in column 2 several times and aspire 25 μL. Dispense in column 3. • Repeat the process until column 10. In column 10, aspire 25 μL of the content and discard. In 96-well plates U-form: • With a multichannel pipette (in dispensing mode), aspire a properly volume (consider the number of copies of the mother plate do you want to perform) of all wells in mother plate, to dispense 1 μL/well in daughter plates. Tecan instrument (FREEDOM EVO 100) was used to make the mother and daughter plates. Bacterial suspension will be prepared and normalized to 0.5 McFarland turbidity standard (aprox. 10^8 CFU/mL) using a physiological saline solution (sodium chloride 0.9%). Then, prepared a 1/1000 dilution (aprox. 10^5 CFU/mL) of the suspension in appropriate media (CLSI Standard) and inoculate 99 μL in each well in daughter plates (only columns 1 to 11) using a MultidropTM Combi Reagent Dispenser. In column 12, only 99 μL of media will be dispense as a sterility control. The final plate map is (all values in μg/mL): Plates will be incubated 18-20 h at 37° C. MIC values will be considered as the concentration of compounds at which the growth will be inhibited=>≥80%, compared to growth control.
(In general: In broth dilution the organism is exposed to a series of concentrations in liquid medium.)
As to `CCN(C(=O)Cc1noc(CN2C(=O)C(=O)N(CC3CC3)C2=O)n1)c1ccccc1OC` [Example 24, 2-(5-((3-(Cyclopropylmethyl)-2,4,5-trioxoimidazolidin-1-yl)methyl)-1,2,4-oxadiazol-3-yl)-N-ethyl-N-(2-methoxyphenyl)acetamide], the MIC (in general, the lowest concentration found to suppress growth) was 8 µg/mL (≈ 18.1 µM).

Take `COc1ccccc1N(CCCO)C(=O)Cc1noc(CN2C(=O)C(=O)N(CC3CC3)C2=O)n1` [Example 4, 2-(5-((3-(cyclopropylmethyl)-2,4,5-trioxoimidazolidin-1-yl)methyl)-1,2,4-oxadiazol-3-yl)-N-(3-hydroxypropyl)-N-(2-methoxyphenyl)acetamide]: the MIC was determined as 16 µg/mL (≈ 33.9 µM).

In turn, `COc1ccccc1N(C)C(=O)Cc1noc(CN2C(=O)C(=O)N(CC3CC3)C2=O)n1` [Example 26, 2-(5-((3-(Cyclopropylmethyl)-2,4,5-trioxoimidazolidin-1-yl)methyl)-1,2,4-oxadiazol-3-yl)-N-(2-methoxyphenyl)-N-methylacetamide] had an MIC of 4 µg/mL (≈ 9.36 µM).

With `COc1ccccc1N(CCO)C(=O)Cc1noc(CN2C(=O)C(=O)N(CC3CC3)C2=O)n1` [Example 1, 2-(5-((3-(Cyclopropylmethyl)-2,4,5-trioxoimidazolidin-1-yl)methyl)-1,2,4-oxadiazol-3-yl)-N-(2-hydroxyethyl)-N-(2-methoxyphenyl)acetamide], the MIC amounted to 4 µg/mL (≈ 8.74 µM).

As to `COc1ccccc1NC(=O)Cc1noc(CN2C(=O)C(=O)N(CC3CC3)C2=O)n1` [Example 27, 2-(5-((3-(Cyclopropylmethyl)-2,4,5-trioxoimidazolidin-1-yl)methyl)-1,2,4-oxadiazol-3-yl)-N-(2-methoxyphenyl)acetamide], the MIC turned out to be 4 µg/mL (≈ 9.68 µM).

The molecule `COc1ccccc1N(CCOCCO)C(=O)Cc1noc(CN2C(=O)C(=O)N(CC3CC3)C2=O)n1` [Example 5, 2-(5-((3-(cyclopropylmethyl)-2,4,5-trioxoimidazolidin-1-yl)methyl)-1,2,4-oxadiazol-3-yl)-N-(2-(2-hydroxyethoxy)ethyl)-N-(2-methoxyphenyl)acetamide] displayed an MIC of 32 µg/mL (≈ 63.8 µM).
